# Data as given in patent US8735411B2, “Macrocyclic benzofused pyrimidine derivatives” (AbbVie Inc., priority 2006, dated 2014).
# Key:
# neuropathic pain = experiment: Analgesic effect against neuropathic pain: L5/L6 spinal nerve ligation (Chung model), von Frey mechanical allodynia; format: in vivo, rat; details: 30 minutes before testing
# Method: Animals were prepared for testing, by use of a surgical procedure that induces neuropathic pain in one paw. Male Sprague Dawley rats were purchased from Charles River (Portage, Mich.). Prior to surgery, animals were housed in groups and maintained in a temperature-regulated environment. Following nerve ligation surgery, animals were housed in groups, and had access to food and water ad libitum.
# The L5 and L6 spinal nerves of anesthetized rats were tightly ligated in a manner described previously (see Kim and Chung, Pain (1992) vol. 50 pp. 355-363). An incision was made on the dorsal portion of the hip and the muscle was blunt-dissected to reveal the spinal processes. The L6 transverse process was removed, and the left side L5 and L6 spinal nerves were tightly ligated with 5.0 braided silk suture. The wound was cleaned, the membrane sewn with 4.0 dissolvable Vicryl suture and the skin closed with wound clips. The paw affected by the surgical procedure (the left paw) develops an allodynic response, a hypersensitivity to mechanical and other stimuli; neuropathic pain is assessed as an increased sensitivity in the surgically affected (left) allodynic paw compared to the control paw on the right side, and measured by comparing the response of the (left side) allodynic paw to the response of the unaffected right side control paw.
# For the assessment of neuropathic pain, mechanical allodynia in the affected paw of animals that had undergone spinal nerve ligation was evaluated using testing with von Frey filaments. As described previously by S. R. Chaplan, et al (“Quantitative assessment of tactile allodynia in the rat paw” J. Neurosci. Meth. (1994) vol. 53 pp. 55-63), two weeks following surgery rats were acclimated to a testing box constructed of plexiglass with a wire mesh floor which allowed access to the plantar surface of the animal's hindpaws. Using an Up-Down method (Dixon, Annu. Rev. Pharmacol. Toxicol. (1980) vol. 20, pp. 441-462; Chaplan et al. “Quantitative assessment of tactile allodynia in the rat paw” J. Neuroscience Methods (1994) vol. 53 pp. 55-63), von Frey filaments of increasing stiffness were applied to the plantar surface of the hindpaws and the withdrawal response of the animals was observed; for the surgically affected paw with neuropathic pain (the left side paw) the baseline level of allodynia has a withdrawal threshold of ≦4 g of pressure. […] The efficacy of the compound in reducing neuropathic pain at different doses is determined by comparing response in the surgery-affected paw versus the response in the control paw. This is expressed as the MPE (maximum percent effect), or 100 times the withdrawal threshold of the allodynic (left side) divided by the withdrawal threshold of the control (right side).
# inflammatory pain = experiment: Analgesic effect against inflammatory pain: carrageenan-induced thermal hyperalgesia, hotbox assay; format: in vivo; details: 100 micromole/kg i.p., 90 min after carrageenan, tested 30 min after dosing
# Method: To assess the effectiveness of representative compounds of the invention against acute model inflammatory pain, animals were tested in an acute model of carrageenan-induced thermal hyperalgesia (see for example, Honore, et al. Behavioural Brain Research 167 (2006) 355-364; Porreca, et al. Journal of Pharmacology and Experimental Therapeutics (2006) vol. 318 pp. 195-205). Carrageenan was injected into the test paw of the animal, and after 90 minutes, the test drug was administered by intraperitoneal dosing; the effect on thermal hyperalgesia was assessed in a hotbox assay which done 30 minutes after the intraperitoneal dosing of the test drug, and the MPE (maximal percent effect) reported by comparison to the control paw (not injected with carrageenan), according to 100 times the withdrawal latency of the carrageenan injected paw (in seconds) divided by the withdrawal latency of the control (not injected with carrageenan) paw.
# [1] = test system: pain in a surgical skin incision model; experiment: Analgesic effect in surgical skin incision model, von Frey mechanical allodynia; format: in vivo, rat
# Method: This is a surgical skin incision model (Joshi, et al. Pain 123 (2006) 75-82). Animals (rats) were prepared for testing by subjecting them in a surgical procedure carried out under sterile conditions, where the plantaris muscle was elevated and incised longitudinally with the origin and insertion of the muscle remaining intact. The skin was then closed with two mattress sutures (e.g. 5-0 nylon sutures). After surgery, animals were allowed to recover on a warming plate and housed individually in cages with soft bedding. […] Animals were tested for mechanical allodynia using von Frey hair mechanical stimulation 2, 24, and 48 h after surgery as described for the Chung model.
# histamine H4 receptor [2] = molecular target: T1, histamine H4 receptor (Homo sapiens, UniProt Q9H3N8); experiment: In vitro histamine H4 potency in FLIPR (Ca2+ flux, HEK-293 cells coexpressing Gαqi5); format: cell-based; design: expressed in transfected cells; details: Kb for antagonists and inverse agonists, EC50 for partial agonists
# In short: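 Fluo-4-loaded cells read on FLIPR for intracellular Ca2+ rise after compound addition, with pre-addition fluorescence subtracted. Peak responses per concentration expressed as % of the full-agonist histamine response. Concentration–response fits give Kb for antagonists/inverse agonists and EC50 for partial agonists.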
# Target sequence in this assay (Q9H3N8 whole entry): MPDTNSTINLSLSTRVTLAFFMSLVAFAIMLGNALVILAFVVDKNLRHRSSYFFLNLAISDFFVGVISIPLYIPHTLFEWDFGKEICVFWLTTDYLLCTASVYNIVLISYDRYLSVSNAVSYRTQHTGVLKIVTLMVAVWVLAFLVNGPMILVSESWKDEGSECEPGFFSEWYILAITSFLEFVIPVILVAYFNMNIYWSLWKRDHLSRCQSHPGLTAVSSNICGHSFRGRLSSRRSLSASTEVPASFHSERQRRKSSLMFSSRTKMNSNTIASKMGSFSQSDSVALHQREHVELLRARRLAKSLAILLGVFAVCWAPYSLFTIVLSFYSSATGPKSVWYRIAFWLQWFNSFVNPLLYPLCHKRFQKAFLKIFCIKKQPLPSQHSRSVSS
# histamine H4 receptor [3] = molecular target: T1, histamine H4 receptor; experiment: [3H]-histamine competition binding assay on membranes of transfected HEK-293 cells; design: expressed in transfected cells; host or cells: HEK-293 cells, transient transfection with pCINeo vector; membranes; details: displacement of [3H]-histamine; Ki by Cheng-Prusoff equation; read-out: Potency
# Method: In this assay, membranes were prepared from HEK-293 cells transiently transfected with the pCINeo expression vector harboring the histamine H4 receptor by homogenization of the cells on ice in TE buffer (50 mM Tris-HCl buffer, pH 7.4, containing 5 mM EDTA), 1 mM benzamidine, 2 μg/ml aprotinin, 1 μg/ml leupeptin, and 1 μg/ml pepstatin. The homogenate was centrifuged at 40,000 g for 20 minutes at 4° C. This step was repeated, and the resulting pellet was resuspended in TE buffer. Aliquots were frozen at −70° C. until needed. On the day of assay, membranes were thawed and diluted with TE buffer. Competition radioligand binding assays were performed with increasing concentrations of test compound in the presence of [^3H]-histamine incubated at 25° C. for 1 hour in a total volume of 0.5 ml of 50 mM Tris, 5 mM EDTA, pH 7.4. All binding reactions were terminated by filtration under vacuum onto polyethylenimine (0.3%) presoaked Unifilters (PerkinElmer Life Sciences) or Whatman GF/B filters (Whatman, Clifton, N.J.) followed by three brief washes with 4 ml of ice-cold TE buffer. Bound radiolabel was determined by liquid scintillation counting. For all of the radioligand competition binding assays, IC50 values and Hill slopes were determined by Hill transformation of the data and Ki values were determined by the Cheng-Prusoff equation.
# Target sequence in this assay (Q9H3N8 whole entry, species assumed): as the sequence (Q9H3N8 whole entry) above
SMILES,MPE (neuropathic pain; 100 micromole/kg i.p.) [%],MPE (inflammatory pain) [%],MPE (neuropathic pain; 300 micromole/kg i.p.) [%],MPE ([1]; 30 micromole/kg i.p.) [%],MPE ([1]; 100 micromole/kg i.p.) [%],Potency (histamine H4 receptor [2]) [nM],Ki (histamine H4 receptor [3]) [nM]
"Nc1nc2c(c(N3CC[C@@H](N)C3)n1)CCCc1ccccc1-2 [Example 16, 4-((3R)-3-Amino-pyrrolidin-1-yl)-6,7-dihydro-5H-benzo[6,7]cyclohepta[1,2-d]pyrimidin-2-ylamine]",47,68,,,,,
"CNC1CN(c2nc(N)nc3c2CCCc2ccccc2-3)C1 [Example 3, 4-(3-Methylamino-azetidin-1-yl)-6,7-dihydro-5H-benzo[6,7]cyclohepta[1,2-d]pyrimidin-2-ylamine]",36,41,78,21,69,9.3,4
"Nc1nc2c(c(N3CCNCC3)n1)CCCc1ccccc1-2 [Example 7, 4-Piperazin-1-yl-6,7-dihydro-5H-benzo[6,7]cyclohepta[1,2-d]pyrimidin-2-ylamine]",30,23,,,,15,8
"CN[C@@H]1CCN(c2nc(N)nc3c2CCCc2ccccc2-3)C1 [Example 6, 4-(3-(R)-Methylamino-pyrrolidin-1-yl)-6,7-dihydro-5H-benzo[6,7]cyclohepta[1,2-d]pyrimidin-2-ylamine]",,,,,,6.6,5
